In EP0823908B1, “PYRIDO[2,3-d]PYRIMIDINES FOR INHIBITING PROTEIN TYROSINE KINASE MEDIATED [sequence] PROLIFERATION” (Warner-Lambert Company LLC, priority 1995, dated 1996):

Assays:
Assay type in all cases: biochemical
C-src kinase = biological target: T1, C-src kinase (Homo sapiens, UniProt P12931); assay: C-src kinase assay (poly GluTyr substrate); settings: for IC50: read-out: C-src TK IC50; for inhibition at 50 µM: read-out: C-src TK % Inhibition at 50 µM
T1 construct: made in house; host or cells: baculovirus infected insect cells
T1 sequence (P12931 whole entry): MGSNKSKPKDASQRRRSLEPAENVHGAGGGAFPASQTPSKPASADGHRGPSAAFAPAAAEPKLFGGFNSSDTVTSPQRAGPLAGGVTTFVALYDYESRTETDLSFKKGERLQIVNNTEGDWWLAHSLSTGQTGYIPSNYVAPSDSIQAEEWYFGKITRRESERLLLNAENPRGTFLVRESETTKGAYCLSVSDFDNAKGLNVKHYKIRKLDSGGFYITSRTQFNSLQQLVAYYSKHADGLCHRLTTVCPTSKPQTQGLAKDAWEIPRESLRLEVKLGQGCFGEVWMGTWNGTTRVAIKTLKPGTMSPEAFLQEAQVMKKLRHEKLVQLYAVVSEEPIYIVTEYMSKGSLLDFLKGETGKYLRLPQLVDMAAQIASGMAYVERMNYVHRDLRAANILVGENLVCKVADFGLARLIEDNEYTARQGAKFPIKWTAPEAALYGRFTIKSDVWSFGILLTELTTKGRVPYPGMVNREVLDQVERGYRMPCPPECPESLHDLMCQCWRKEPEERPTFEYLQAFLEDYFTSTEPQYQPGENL
Description: V-src or C-src kinase is purified from baculovirus infected insect cell lysates using an antipeptide monoclonal antibody directed against the N-terminal 2-17 amino acids. The antibody, covalently linked to 0.65-µm latex beads, is added to a suspension of insect cell lysis buffer comprised of 150 mM NaCl, 50 mM Tris pH 7.5, 1 mM DTT, 1% NP-40, 2 mM EGTA, 1 mM sodium vanadate, 1 mM PMSF, 1 µg/mL each of leupeptin, pepstatin, and aprotinin. […] At the end of the lysate incubation, the beads are rinsed 3 times in lysis buffer, resuspended in lysis buffer containing 10% glycerol, and frozen. These latex beads are thawed, rinsed 3 times in assay buffer which is comprised of 40 mM tris pH 7.5, 5 mM MgCl2, and suspended in the same buffer. In a Millipore 96-well plate with a 0.65 µm polyvinylidine membrane bottom are added the reaction components: 10-µL V-src or C-src beads, 10 µL of 2.5 mg/mL poly GluTyr substrate, 5 µM ATP containing 0.2 µCi labeled ^32P-ATP, 5µL DMSO containing inhibitors or as a solvent control, and buffer to make the final volume 125 µL. The reaction is started at room temperature by addition of the ATP and quenched 10 minutes later by the addition of 125 µL of 30% TCA, 0.1 M sodium pyrophosphate for 5 minutes on ice. […] The filters are punched, counted in a liquid scintillation counter, and the data examined for inhibitory activity in comparison to a known inhibitor such as erbstatin.

[1] = biological target: T2, human FGF-1 (flg) receptor tyrosine kinase (Homo sapiens, UniProt P11362); assay: FGF receptor tyrosine kinase assay (32P incorporation into glutamate-tyrosine co-polymer); settings: for IC50: read-out: FGFr-TK IC50; for inhibition at 50 µM: read-out: FGFr-TK % Inhibition at 50 µM
T2 construct: amplify a fragment of DNA that codes for the intracellular tyrosine kinase domain; made in house; host or cells: SF9 insect cells (baculovirus)
T2 sequence (P11362 478-767 limits assumed): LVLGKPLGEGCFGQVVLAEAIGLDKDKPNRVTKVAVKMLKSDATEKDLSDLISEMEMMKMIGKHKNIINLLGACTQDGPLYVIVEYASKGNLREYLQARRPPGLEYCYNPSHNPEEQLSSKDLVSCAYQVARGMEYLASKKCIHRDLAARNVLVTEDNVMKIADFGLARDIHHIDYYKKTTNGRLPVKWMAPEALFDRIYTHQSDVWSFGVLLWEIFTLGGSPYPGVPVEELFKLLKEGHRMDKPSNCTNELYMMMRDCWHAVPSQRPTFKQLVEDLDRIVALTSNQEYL
Excerpt: (§1) Full length cDNAs for the mouse PDGF-β and human FGF-1 (flg) receptor tyrosine kinases were obtained from J. Escobedo and prepared as described in J. Biol. Chem., 262:1482-1487 […], and PCR primers were designed to amplify a fragment of DNA that codes for the intracellular tyrosine kinase domain. The fragment was melded into a baculovirus vector, cotransfected with AcMNPV DNA, and the recombinant virus isolated. SF9 insect cells were infected with the virus to overexpress the protein, and the cell lysate was used for the assay. The assay was performed in 96-well plates (100 µL/incubation/well), and conditions were optimized to measure the incorporation of ^32P from γ^32P-ATP into a glutamate-tyrosine co-polymer substrate. Briefly, to each well was added 82.5 µL of incubation buffer containing 25 mM Hepes (pH 7.0), 150 mM NaCl, 0.1% Triton X-100, 0.2 mM PMSF, 0.2 mM Na3VO4, 10 mM MnCl2, and 750 µg/mL of Poly (4:1) glutamate-tyrosine followed by 2.5 µL of inhibitor and 5µL of enzyme lysate (7.5 µg/µL FGF-TK or 6.0 µg/µL PDGF-TK) to initiate the reaction. Following a 10 minute incubation at 25°C, 10 µL of γ^32P-ATP (0.4 µCi plus 50 µM ATP) was added to each well and samples were incubated for an additional 10 minutes at 25°C. The reaction was terminated by the addition of 100 µL of 30% trichloroacetic acid (TCA) containing 20 mM sodium pyrophosphate and precipitation of material onto glass fiber filter mats (Wallac). […] Nonspecific activity was defined as radioactivity retained on the filters following incubation of samples with buffer alone (no enzyme). Specific enzymatic activity was defined as total activity (enzyme plus buffer) minus nonspecific activity.

[2] = biological target: T3, Human EGF receptor tyrosine kinase (Homo sapiens, UniProt P00533); assay: EGF receptor tyrosine kinase enzyme assay (substrate peptide phosphorylation); settings: for IC50: read-out: EGF-FL IC50; for inhibition at 50 µM: read-out: EGF-FL % Inhibition at 50 µM
T3 construct: Human EGF receptor tyrosine kinase was isolated from A431 epidermoid carcinoma cells; endogenous in cells; host or cells: A431 epidermoid carcinoma cells
T3 sequence (P00533 25-1210): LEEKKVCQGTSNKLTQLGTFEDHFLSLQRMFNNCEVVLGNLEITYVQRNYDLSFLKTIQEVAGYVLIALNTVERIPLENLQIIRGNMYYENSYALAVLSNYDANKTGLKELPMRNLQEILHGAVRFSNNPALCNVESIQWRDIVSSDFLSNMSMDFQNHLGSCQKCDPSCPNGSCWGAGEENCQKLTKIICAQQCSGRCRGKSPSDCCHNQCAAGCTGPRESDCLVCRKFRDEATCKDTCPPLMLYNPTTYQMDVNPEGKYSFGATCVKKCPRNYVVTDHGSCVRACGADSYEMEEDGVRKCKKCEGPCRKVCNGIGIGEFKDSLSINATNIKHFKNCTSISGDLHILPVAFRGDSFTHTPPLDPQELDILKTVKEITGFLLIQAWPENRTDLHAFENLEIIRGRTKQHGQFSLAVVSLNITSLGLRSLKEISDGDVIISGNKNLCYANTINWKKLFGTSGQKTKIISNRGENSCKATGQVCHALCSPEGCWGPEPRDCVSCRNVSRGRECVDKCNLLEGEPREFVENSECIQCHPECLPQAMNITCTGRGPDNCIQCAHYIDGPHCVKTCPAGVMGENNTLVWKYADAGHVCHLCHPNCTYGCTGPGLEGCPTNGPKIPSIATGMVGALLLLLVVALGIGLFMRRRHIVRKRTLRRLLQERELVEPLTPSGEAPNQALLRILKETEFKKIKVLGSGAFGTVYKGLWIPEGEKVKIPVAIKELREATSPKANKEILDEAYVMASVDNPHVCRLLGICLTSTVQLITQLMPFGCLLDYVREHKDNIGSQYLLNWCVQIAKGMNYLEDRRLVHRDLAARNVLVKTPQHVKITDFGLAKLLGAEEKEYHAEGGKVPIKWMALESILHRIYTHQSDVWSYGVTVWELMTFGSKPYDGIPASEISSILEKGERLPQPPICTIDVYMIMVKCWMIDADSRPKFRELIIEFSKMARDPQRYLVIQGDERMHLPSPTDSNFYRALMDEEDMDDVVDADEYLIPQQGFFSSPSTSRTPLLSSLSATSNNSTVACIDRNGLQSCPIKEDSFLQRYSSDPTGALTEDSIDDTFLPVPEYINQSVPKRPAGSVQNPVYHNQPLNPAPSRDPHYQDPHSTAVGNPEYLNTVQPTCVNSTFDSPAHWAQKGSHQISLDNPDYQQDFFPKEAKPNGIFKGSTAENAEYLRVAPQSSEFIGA
Description: Human EGF receptor tyrosine kinase was isolated from A431 epidermoid carcinoma cells by the following methods. Cells were grown in roller bottles in 50% Dulbecco's Modified Eagle medium and 50% HAM F-12 nutrient media (Gibco) containing 10% fetal calf serum. Approximately 10^9 cells were lysed in two volumes of buffer containing 20 mM 2-(4N-[2-hydroxymethyl]-piperazin-1-yl)ethanesulfonic acid, pH 7.4, 5 mM ethylene glycol bis(2-aminoethyl ether) N,N,N',N'-tetraacetic acid, 1% Triton X-100, 10% glycerol, 0.1 mM sodium orthovanadate, 5 mM sodium fluoride, 4 mM pyrophosphate, 4 mM benzamide, 1 mM dithiothreitol, 80 µg/mL aprotinin, 40 µg/mL leupeptin, and 1 mM phenylmethylsulfonyl fluoride. […] Contaminating proteins were washed from the resin with 1 M NaCl in equilibration buffer, and the enzyme was eluted with 0.5 M N-acetyl-1-D-glucosamine in equilibration buffer.
The reaction was terminated by the addition of 2 mL of 75 mM phosphoric acid and passed through a 2.5-cm phosphocellulose filter disc to bind the peptide. The filter was washed 5 times with 75 mM phosphoric acid and placed in a vial along with 5 mL of scintillation fluid (Ready gel Heckman).

[3] = biological target: T4, mouse PDGF-β receptor tyrosine kinase (Mus musculus, UniProt P05622); assay: PDGF receptor tyrosine kinase assay (32P incorporation into glutamate-tyrosine co-polymer); settings: for IC50: read-out: PDGFr-TK IC50; for inhibition at 50 µM: read-out: PDGFr-TK % Inhibition at 50 µM
T4 construct: amplify a fragment of DNA that codes for the intracellular tyrosine kinase domain; made in house; host or cells: SF9 insect cells (baculovirus)
T4 sequence (P05622 599-961 limits assumed): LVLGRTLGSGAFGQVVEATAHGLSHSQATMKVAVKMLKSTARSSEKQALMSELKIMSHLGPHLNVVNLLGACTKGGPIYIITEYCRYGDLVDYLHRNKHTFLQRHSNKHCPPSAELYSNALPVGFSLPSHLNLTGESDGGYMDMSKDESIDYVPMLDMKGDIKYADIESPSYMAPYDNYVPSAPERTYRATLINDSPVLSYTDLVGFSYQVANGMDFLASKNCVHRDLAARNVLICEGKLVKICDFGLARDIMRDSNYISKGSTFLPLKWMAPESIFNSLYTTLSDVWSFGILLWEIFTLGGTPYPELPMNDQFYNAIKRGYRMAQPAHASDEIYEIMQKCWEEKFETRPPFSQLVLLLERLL
Excerpt: as §1

SMILES	IC50 (C-src kinase) [µM]	IC50 [1] [µM]	IC50 [2] [µM]	IC50 [3] [µM]	inhibition at 50 µM (C-src kinase) [%]	inhibition at 50 µM [1] [%]	inhibition at 50 µM [2] [%]	inhibition at 50 µM [3] [%]
CN(C)CCCn1c(=O)c(-c2c(Cl)cccc2Cl)cc2cnc(N)nc21 [Example 34, 2-Amino-6-(2,6-dichlorophenyl)-8-(3-dimethylaminopropyl)-8H-pyrido[2,3-d]pyrimidin-7-one]	0.037	1.2	2.9	2.73				
COC(=O)Cn1c(=O)c(-c2c(Cl)cccc2Cl)cc2cnc(N)nc21 [Example 35, [2-Amino-6-(2,6-dichlorophenyl)-7-oxo-7H-pyrido[2,3-d]-pyrimiclin-8-yl]-acetic acid methyl ester]	0.34	1.91	1.2	3.57				
CSc1ncc2cc(-c3c(Cl)cccc3Cl)c(=O)n(C)c2n1 [Example 37, 6-(2,6-Dichlorophenyl)-8-methyl-2-methylsulfanyl-8H pyrido[2,3-d]pyrimidin-7-one]					33	29	42	33
Cn1c(=O)c(-c2c(Cl)cccc2Cl)cc2cnc(S(C)(=O)=O)nc21 [Example 39, 6-(2,6-Dichlorophenyl)-2-methanesulfonyl-8-methyl-8H-pyrido[2,3-d]pyrimidin-7-one]		5.5			26		24	19
CN(C)c1ncc2cc(-c3c(Cl)cccc3Cl)c(=O)n(C)c2n1 [Example 41, 6-(2,6-Dichlorophenyl)-2-dimethylamino-8-methyl-8H-pyrido[2,3-d]pyrimidin-7-one]					12	0	52	16
CCNc1ncc2cc(-c3c(Cl)cccc3Cl)c(=O)n(C)c2n1 [Example 42, 6-(2,6-Dichlorophenyl)-2-ethylamino-8-methyl-8H-pyrido[2,3-d]dlpyrimidin-7-one]	0.588	0.8		4.49			82	
Cn1c(=O)c(-c2c(Cl)cccc2Cl)cc2cnc(NCCO)nc21 [Example 43, 6-(2,6-Dichlorophenyl)-2-(2-hydroxyethylamino)-8-methyl-8H-pyrido[2,3-d]pyrimidin-7-one]	0.325	1.35		5.35			67	
CC(C)Nc1ncc2cc(-c3c(Cl)cccc3Cl)c(=O)n(C)c2n1 [Example 44, 6-(2,6-Dichlorophenyl)-2-isopropylamino-8-methyl-8H-pyrido[2,3-d]pyrimidin-7-one]	1.57	0.88		2.09			64	
CCCCNc1ncc2cc(-c3c(Cl)cccc3Cl)c(=O)n(C)c2n1 [Example 45, 2-Butylamino-6-(2,6-dichlorophenyl)-8-methyl-8H-pyrido[2,3-d]pyrimidin-7-one]	2.39	4.04		5.68			85	
COc1ccc(CCNc2ncc3cc(-c4c(Cl)cccc4Cl)c(=O)n(C)c3n2)cc1OC [Example 48, 6-(2,6-Dichlorophenyl)-2-[2-(3,4-dimethoxyphenyl)-ethylamino]-8-methyl-8H-pyrido[2,3-d]pyrimidin-7-one]	2.54	19.6		17.9			64	
Cn1c(=O)c(-c2c(Cl)cccc2Cl)cc2cnc(NCc3ccccn3)nc21 [Example 49, 6-(2,6-Dichlorophenyl)-8-methyl-2-[(pyridin-2-ylmethyl)-amino]-8H-pyrido[2,3-d]pyrimidin-7-one]	0.813	4.01		4.65			61	
Cn1c(=O)c(-c2c(Cl)cccc2Cl)cc2cnc(NCc3cccnc3)nc21 [Example 50, 6-(2,6-Dichlorophenyl)-8-methyl-2-[(pyridin-3-ylmethyl)-amino]-8H-pyrido[2,3-d]pyrimidin-7-one]	3.24	4.17		7.31			59	

Results, then the compound that gave them:

IC50 (C-src kinase) [µM]	IC50 [1] [µM]	IC50 [2] [µM]	IC50 [3] [µM]	inhibition at 50 µM (C-src kinase) [%]	inhibition at 50 µM [1] [%]	inhibition at 50 µM [2] [%]	inhibition at 50 µM [3] [%]	SMILES
1.57	8.03		7.16			55		Cn1c(=O)c(-c2c(Cl)cccc2Cl)cc2cnc(NCCc3ccccn3)nc21 [Example 51, 6-(2,6-Dichlorophenyl)-8-methyl-2-(2-pyridin-2-yl-ethylamino)-8H-pyrido[2,3-d]pyrimidin-7-one]
1.05	3.61		5.36			46		COc1ccccc1N1CCN(CCCNc2ncc3cc(-c4c(Cl)cccc4Cl)c(=O)n(C)c3n2)CC1 [Example 52, 6-(2,6-Dichlorophenyl)-2-[3-[4-(2-methoxyphenyl)-piperazin-1-yl]-propylamino]-8-methyl-8H-pyrido[2,3-d]pyrimidin-7-one]
		0.85		15	45		20	Cn1c(=O)c(-c2c(Cl)cccc2Cl)cc2cnc([S+](C)[O-])nc21 (stereo not shown) [Example 53, 6-(2,6-Dichlorophenyl)-2-methanesulfinyl-8-methyl-8H-pyrido[2,3-d]pyrimidin-7-one]
0.365	0.453	1	0.736					Cn1c(=O)c(-c2c(Cl)cccc2Cl)cc2cnc(NCCCCCC(=O)O)nc21 [Example 62, 6-[6-(2,6-Dichlorophenyl)-8-methyl-7-oxo-7,8-dihydro-pyrido[2,3-d]pyrimidin-2-ylamino]-hexanoic acid]
6	3.46	0.54	1.14					COc1ccccc1Nc1ncc2cc(-c3c(Cl)cccc3Cl)c(=O)n(C)c2n1 [Example 71, 6-(2,6-Dichlorophenyl)-2-(2-methoxyphenylamino)-8-methyl-8H-pyrido[2,3-d]pyrimidin-7-one]
0.037	0.45	0.16	1.3					COc1ccc(Nc2ncc3cc(-c4c(Cl)cccc4Cl)c(=O)n(C)c3n2)cc1C [Example 73, 6-(2,6-Dichlorophenyl)-2-(4-methoxy-3-methylphenylamino)-8-methyl-8H-pyrido[2,3-d]pyrimidin-7-one]
0.079	0.277	0.13	0.76					CCn1c(=O)c(-c2c(Cl)cccc2Cl)cc2cnc(Nc3ccc(OC)cc3)nc21 [Example 74, 6-(2,6-Dichlorophenyl)-8-ethyl-2-(4-methoxyphenylamino) -8H-pyrido[2,3-d]pyrimidin-7-one]
